Our source for the IC50 values is patent US20210387996A1, “TRICYCLIC COMPOUNDS FOR THE TREATMENT AND PROPHYLAXIS OF HEPATITIS B VIRUS DISEASE” (priority 2018, published 2021).

This assay deals with HBeAg level in HepDES19 cells (surrogate marker for cccDNA). Kind of assay: Engineered HepDES19 primary screen assay (HBeAg as surrogate marker for cccDNA). The assay is classed as cell-based, HBV. The conditions noted are these: Hepatitis B virus, HepDES19, 120 h, read-out: IC50 (HBeAg level, HepDES19 primary screen assay). An excerpt:
The assay was employed to screen for novel cccDNA inhibitors. HepDES19 is a cccDNA-producing cell line. In this cell line, HBeAg in the cell culture supernatant as surrogate marker, as HBeAg production depends on cccDNA level and activity. HepDES19 is an engineered cell line which contains a 1.1 unit length HBV genome, and pgRNA transcription from the transgene is controlled by Tetracycline (Tet). In the absence of Tet, pgRNA transcription will be induced, but HBV e antigen (HBeAg) could not be produced from this pgRNA due to very short leader sequence before the HBeAg start codon and the start codon is disrupted. Only after cccDNA is formed, the missing leader sequence and start codon mutation would be restored from the 3′-terminal redundancy of pgRNA, and then HBeAg could be synthesized. Therefore, HBeAg could be used as a surrogate marker for cccDNA (Zhou, T. et al., Antiviral Res. (2006), 72(2), 116-124; Guo, H. et al., J. Virol. (2007), 81(22), 12472-12484).
HepDES19 cells were seeded at 2×10^6 cells per T150 flask and cultured with the culture medium (Dulbecco's Modified Eagle Medium: Nutrient Mixture F-12 [DMEM-F12, Gibco Cat. 11320-82], 10% Fetal Bovine Serum [FBS, Clontech Cat. 631101], 0.1 mM Non-Essential Amino Acids Solution [NEAA, Gibco Cat. 11140-050], 50 μg/mL Penicillin-Streptomycin [PS, Invitrogen Cat. 15140-163], 500 μg/mL Geneticin [G418, Invitrogen Cat. 10131-027]) containing 3 μg/mL Tet (Sigma, Cat. 87128) for 5 days. Cells were then seeded at 4×10^6 cells per T150 in the same culture medium as described above in the absence of Tet for 8 days. Cells were then harvested and frozen at density of 2×10^6 cells per mL. For compound testing, the frozen cells were thawed and seeded into 96-well plates at a density of 6×10^4 cells per well. At 24 hours after seeding, half log serial dilutions of compounds made with Dimethyl sulfoxide (DMSO, Sigma, Cat. D2650) were further diluted with the same culture medium as described above before they were added to the cells to reach desired final compound concentrations and 1% DMSO concentration. Plates were then incubated at 37° C. for another 5 days before measurement of HBeAg level and cell viability. Intracellular HBeAg level were measured with enzyme-linked immunosorbent assay (ELISA) kit (Shanghai Kehua Diagnostic Medical Products Co., Ltd). Cell viability was assessed using Cell Counting Kit-8 (Donjindo, Cat. CK04-20). IC50 values were derived from the dose-response curve using 4 parameter logistic curve fit method.
The compounds of the present invention were tested for their capacity to inhibit extracellular HBeAg level as described herein.
Regarding `O=c1c2c(oc3c(Cl)cccc13)CN(Cc1ccccc1)CC2` [Example 2, 2-benzyl-9-chloro-3,4-dihydro-1H-chromeno[2,3-c]pyridin-5(2H)-one], the IC50 (in general, the point on the concentration scale where inhibition reaches its midpoint) was 49.8 µM. Turning to `COC(=O)c1cccc(CN2CCc3c(oc4c(Cl)cccc4c3=O)C2)c1` [Example 3, methyl 3-((9-chloro-5-oxo-3,4-dihydro-1H-chromeno[2,3-c]pyridin-2(5H)-yl)methyl)benzoate], the IC50 worked out at 30.7 µM. Under `O=C(c1ccccc1F)N1CCc2c(oc3c(Cl)cccc3c2=O)C1` [Example 4, 9-chloro-2-(2-fluorobenzoyl)-3,4-dihydro-1H-chromeno[2,3-c]pyridin-5-one] stands 23.4 µM; under `COc1ccc(CN2CCc3c(oc4c(Cl)cccc4c3=O)C2=O)cc1` [Example 5, 9-chloro-2-[(4-methoxyphenyl)methyl]-3,4-dihydrochromeno[2,3-c]pyridine-1,5-dione], 26 µM; under `O=C(c1nccc2ccccc12)N1CCc2c(oc3c(Cl)cccc3c2=O)C1` [Example 6, 9-chloro-2-(isoquinoline-1-carbonyl)-3,4-dihydro-1H-chromeno[2,3-c]pyridin-5(2H)-one], 21.6 µM. `O=C(Nc1ccccc1F)N1CCc2c(oc3c(Cl)cccc3c2=O)C1` [Example 7, 9-chloro-N-(2-fluorophenyl)-5-oxo-3,4-dihydro-1H-chromeno[2,3-c]pyridine-2(5H)-carboxamide]: the IC50 amounted to 39.8 µM. With `COC(=O)c1cccc(N2CCc3c(oc4c(Cl)cccc4c3=O)C2=O)c1` [Example 8, methyl 3-(9-chloro-1,5-dioxo-3,4-dihydro-1H-chromeno[2,3-c]pyridin-2(5H)-yl)benzoate], the IC50 worked out at 0.23 µM. With `COC(=O)c1ccc(N2CCc3c(oc4c(Cl)cccc4c3=O)C2=O)cc1` [Example 10, methyl 4-(9-chloro-1,5-dioxo-3,4-dihydro-1H-chromeno[2,3-c]pyridin-2(5H)-yl)benzoate], the IC50 is 7.78 µM. Under `O=C(O)C1CC(Oc2ccc(N3CCc4c(oc5c(Cl)cccc5c4=O)C3=O)cc2)C1` (stereo not shown) [Example 11, 3-(4-(9-chloro-1,5-dioxo-3,4-dihydro-1H-chromeno[2,3-c]pyridin-2(5H)-yl)phenoxy)cyclobutanecarboxylic Acid] stands 19 µM; under `COC(=O)c1ccc(N2CCc3c(oc4c(Cl)cccc4c3=O)C2)nc1` [Example 13, methyl 6-(9-chloro-5-oxo-3,4-dihydro-1H-chromeno[2,3-c]pyridin-2(5H)-yl)nicotinate], 41.6 µM.

Take `O=C1c2oc3c(Cl)cccc3c(=O)c2CCN1c1ccc(Br)cc1` [Example 15, 2-(4-bromophenyl)-9-chloro-3,4-dihydro-2H-chromeno[2,3-c]pyridine-1,5-dione]: the IC50 worked out at 10.5 µM.

On to `O=C1c2oc3c(Cl)cccc3c(=O)c2CCN1c1cccc(OC(F)(F)F)c1` [Example 21, 9-chloro-2-(3-(trifluoromethoxy)phenyl)-3,4-dihydro-2H-chromeno[2,3-c]pyridine-1,5-dione], for which the half-inhibitory concentration (IC50) was 47.5 µM. Regarding `COC(=O)c1cc(N2CCc3c(oc4c(Cl)cccc4c3=O)C2=O)ccc1Cl` [Example 24, methyl 2-chloro-5-(9-chloro-1,5-dioxo-1,3,4,5-tetrahydro-2H-chromeno[2,3-c]pyridin-2-yl)benzoate], the IC50 was 46.1 µM. Regarding `N#Cc1ccc(N2CCc3c(oc4c(Cl)cccc4c3=O)C2=O)cc1` [Example 30, 4-(9-chloro-1,5-dioxo-1,3,4,5-tetrahydro-2H-chromeno[2,3-c]pyridin-2-yl)benzonitrile], the IC50 was determined as 32.5 µM. Take `Cc1ccc(C)c(N2CCc3c(oc4c(Cl)cccc4c3=O)C2=O)c1` [Example 31, 9-chloro-2-(2,5-dimethylphenyl)-3,4-dihydro-2H-chromeno[2,3-c]pyridine-1,5-dione]: the IC50 turned out to be 7.13 µM.

In the case of `O=C1c2oc3c(Cl)cccc3c(=O)c2CCN1c1ccc(OC(F)(F)F)cc1Cl` [Example 32, 9-chloro-2-(2-chloro-4-(trifluoromethoxy)phenyl)-3,4-dihydro-2H-chromeno[2,3-c]pyridine-1,5-dione], the IC50 amounted to 10.8 µM.

In the case of `O=C1c2oc3c(Cl)cccc3c(=O)c2CCN1c1ccc(OC(F)(F)F)cc1` [Example 33, 9-chloro-2-(4-(trifluoromethoxy)phenyl)-3,4-dihydro-2H-chromeno[2,3-c]pyridine-1,5-dione], the IC50 worked out at 1.84 µM. On to `Cc1ccc(N2CCc3c(oc4c(Cl)cccc4c3=O)C2=O)cc1` [Example 34, 9-chloro-2-(p-tolyl)-3,4-dihydro-2H-chromeno[2,3-c]pyridine-1,5-dione], for which the IC50 was 6.01 µM. As for `COC(=O)c1cc(Cl)ccc1N1CCc2c(oc3c(Cl)cccc3c2=O)C1=O` [Example 36, methyl 5-chloro-2-(9-chloro-1,5-dioxo-1,3,4,5-tetrahydro-2H-chromeno[2,3-c]pyridin-2-yl)benzoate], the IC50 amounted to 21.6 µM. `N#Cc1cc(Cl)ccc1N1CCc2c(oc3c(Cl)cccc3c2=O)C1=O` [Example 37, 5-chloro-2-(9-chloro-1,5-dioxo-1,3,4,5-tetrahydro-2H-chromeno[2,3-c]pyridin-2-yl)benzonitrile]: the IC50 came to 12.2 µM. Under `Cc1cc(Cl)ccc1N1CCc2c(oc3c(Cl)cccc3c2=O)C1=O` [Example 38, 9-chloro-2-(4-chloro-2-methylphenyl)-3,4-dihydro-2H-chromeno[2,3-c]pyridine-1,5-dione] stands 2.12 µM. Under `O=c1c2c(oc3c(Cl)cccc13)CN(c1ccc(Cl)cc1)CC2` [Example 42, 9-chloro-2-(4-chlorophenyl)-1,2,3,4-tetrahydro-5H-chromeno[2,3-c]pyridin-5-one] stands 4.26 µM; under `O=C1c2oc3c(Cl)cccc3c(=O)c2CCN1c1ncc(Cl)cc1C(F)(F)F` [Example 43, 9-chloro-2-(5-chloro-3-(trifluoromethyl)pyridin-2-yl)-3,4-dihydro-2H-chromeno[2,3-c]pyridine-1,5-dione], 30.1 µM; under `O=C1c2oc3c(Cl)cccc3c(=O)c2CCN1c1ccc(Cl)cc1Br` [Example 44, 2-(2-bromo-4-chlorophenyl)-9-chloro-3,4-dihydro-2H-chromeno[2,3-c]pyridine-1,5-dione], 6.22 µM.

On to `COc1ccc(COc2cc(Cl)cnc2N2CCc3c(oc4c(Cl)cccc4c3=O)C2=O)cc1` [Example 45, 9-chloro-2-(5-chloro-3-((4-methoxybenzyl)oxy)pyridin-2-yl)-3,4-dihydro-2H-chromeno[2,3-c]pyridine-1,5-dione], for which the IC50 was 6.24 µM. Regarding `COCOc1cc(Cl)ccc1N1CCc2c(oc3c(Cl)cccc3c2=O)C1=O` [Example 46, 9-chloro-2-(4-chloro-2-(methoxymethoxy)phenyl)-3,4-dihydro-2H-chromeno[2,3-c]pyridine-1,5-dione], the half-inhibitory concentration (IC50) turned out to be 9.84 µM. Turning to `O=C(c1cc(Cl)ccc1N1CCc2c(oc3c(Cl)cccc3c2=O)C1=O)N1CCCC1` [Example 47, 9-chloro-2-(4-chloro-2-(pyrrolidine-1-carbonyl)phenyl)-3,4-dihydro-2H-chromeno[2,3-c]pyridine-1,5-dione], the IC50 was found to be 3.29 µM. Regarding `CCOc1cc(Cl)ccc1N1CCc2c(oc3c(Cl)cccc3c2=O)C1=O` [Example 48, 9-chloro-2-(4-chloro-2-ethoxyphenyl)-3,4-dihydro-2H-chromeno[2,3-c]pyridine-1,5-dione], the IC50 is 6.9 µM.
